Test results as given in patent US7390806B2, “Antibiotics containing borinic acid complexes and methods of use” (Anacor Pharmaceuticals, Inc., priority 2002, dated 2008).

How the values were obtained:
Conditions in all cases: Table 1
[1] = test system: S. epidermidis ATCC 12228; experiment: MIC determination, S. epidermidis ATCC 12228; assay type: cell-based, Staphylococcus epidermidis
[2] = test system: E. faecalis ATCC 29212; experiment: MIC determination, E. faecalis ATCC 29212; assay type: cell-based, Enterococcus faecalis
[3] = test system: E. faecium CT-26; experiment: MIC determination, E. faecium CT-26; assay type: cell-based, Enterococcus faecium
[4] = test system: S. pneumoniae ATCC 6301; experiment: MIC determination, S. pneumoniae ATCC 6301; assay type: cell-based, Streptococcus pneumoniae
[5] = test system: M. catarrhalis ATCC 25238; experiment: MIC determination, M. catarrhalis ATCC 25238; assay type: cell-based
[6] = test system: S. aureus ATCC 29213; experiment: MIC determination, S. aureus ATCC 29213; assay type: cell-based, Staphylococcus aureus

SMILES | MIC S. epidermidis ATCC 12228 [1] | MIC E. faecalis ATCC 29212 [2] | MIC E. faecium CT-26 [3] | MIC S. pneumoniae ATCC 6301 [4] | MIC M. catarrhalis ATCC 25238 [5] | MIC S. aureus ATCC 29213 [6]
Oc1cccc2cccnc12 [Compound 38, 8-hydroxyquinoline] | 1 micrograms per ml | 16 micrograms per ml | 2 micrograms per ml | 2 micrograms per ml | 1 micrograms per ml | 1 micrograms per ml
Oc1cccc2cccnc12 [Compound 39, 8-hydroxyquinoline] | 1 micrograms per ml | 8 micrograms per ml | 2 micrograms per ml | 1 micrograms per ml | 2 micrograms per ml | 1 micrograms per ml
C=CB(Oc1cccc2cccnc12)c1cccc(C#N)c1 [Compound 40, (3-Cyanophenyl)vinylborinic acid 8-hydroxyquinoline ester] | 1 micrograms per ml | 8 micrograms per ml | 2 micrograms per ml | 1 micrograms per ml | 2 micrograms per ml | 1 micrograms per ml
Oc1cccc2cccnc12 [Compound 41, 8-hydroxyquinoline] | 1 micrograms per ml | 4 micrograms per ml | 2 micrograms per ml | 1 micrograms per ml | 1 micrograms per ml | 1 micrograms per ml
Oc1cccc2cccnc12 [Compound 42, 8-hydroxyquinoline] | 1 micrograms per ml | 8 micrograms per ml | 2 micrograms per ml | 1 micrograms per ml | 1 micrograms per ml | 1 micrograms per ml
C#CB(Oc1cccc2cccnc12)c1ccccc1Cl [Compound 43, (2-Chlorophenyl)ethynylborinic acid 8-Hydroxyquinoline ester] | 1 micrograms per ml | 8 micrograms per ml | 2 micrograms per ml | 1 micrograms per ml | 1 micrograms per ml | 1 micrograms per ml
Oc1cccc2cccnc12 [Compound 45, 8-hydroxyquinoline] | 1 micrograms per ml | 8 micrograms per ml | 1 micrograms per ml | 1 micrograms per ml | 1 micrograms per ml | 1 micrograms per ml
Oc1cccc2cccnc12 [Compound 46, 8-hydroxyquinoline] | 1 micrograms per ml | 4 micrograms per ml | 1 micrograms per ml | 1 micrograms per ml | 1 micrograms per ml | 1 micrograms per ml
Oc1cccc2cccnc12 [Compound 47, 8-hydroxyquinoline] | 1 micrograms per ml | 8 micrograms per ml | 2 micrograms per ml | 1 micrograms per ml | 1 micrograms per ml | 1 micrograms per ml
Oc1cccc2cccnc12 [Compound 48, 8-hydroxyquinoline] | 1 micrograms per ml | 8 micrograms per ml | 2 micrograms per ml | 1 micrograms per ml | 2 micrograms per ml | 1 micrograms per ml
Oc1ccc(Cl)c2cccnc12 [Compound 49] | 1 micrograms per ml | 16 micrograms per ml | 2 micrograms per ml | 1 micrograms per ml | 0.25 micrograms per ml | 2 micrograms per ml
Oc1cccc2cccnc12 [Compound 54, 8-hydroxyquinoline] | 1 micrograms per ml | 8 micrograms per ml | 4 micrograms per ml | 2 micrograms per ml | 1 micrograms per ml | 2 micrograms per ml
Oc1cccc2cccnc12 [Compound 56, 8-hydroxyquinoline] | 2 micrograms per ml | 8 micrograms per ml | 4 micrograms per ml | 2 micrograms per ml | 4 micrograms per ml | 2 micrograms per ml
Oc1ccc(F)c2cccnc12 [Compound 57] | 2 micrograms per ml | 16 micrograms per ml | 4 micrograms per ml | 4 micrograms per ml | 1 micrograms per ml | 2 micrograms per ml
Oc1ccc(F)c2cccnc12 [Compound 58] | 2 micrograms per ml | 8 micrograms per ml | 4 micrograms per ml | 2 micrograms per ml | 0.5 micrograms per ml | 2 micrograms per ml
Oc1cccc2cccnc12 [Compound 59, 8-hydroxyquinoline] | 1 micrograms per ml | 8 micrograms per ml | 4 micrograms per ml | 1 micrograms per ml | 2 micrograms per ml | 2 micrograms per ml
Oc1cccc2cccnc12 [Compound 60, 8-hydroxyquinoline] | 1 micrograms per ml | 8 micrograms per ml | 4 micrograms per ml | 2 micrograms per ml | 2 micrograms per ml | 2 micrograms per ml
Oc1cccc2cccnc12 [Compound 61, 8-hydroxyquinoline] | 1 micrograms per ml | 16 micrograms per ml | 2 micrograms per ml | 1 micrograms per ml | 2 micrograms per ml | 2 micrograms per ml
Oc1ccc(F)c2cccnc12 [Compound 62] | 2 micrograms per ml | 8 micrograms per ml | 4 micrograms per ml | 2 micrograms per ml | 2 micrograms per ml | 2 micrograms per ml
Oc1cccc2cccnc12 [Compound 63, 8-hydroxyquinoline] | 1 micrograms per ml | 8 micrograms per ml | 4 micrograms per ml | 2 micrograms per ml | 1 micrograms per ml | 2 micrograms per ml
Oc1ccc(F)c2cccnc12 [Compound 64] | 2 micrograms per ml | 8 micrograms per ml | 8 micrograms per ml | 4 micrograms per ml | 1 micrograms per ml | 2 micrograms per ml
Cc1ccnc2c(O)cccc12 [Compound 66] | 1 micrograms per ml | 64 micrograms per ml | 4 micrograms per ml | 1 micrograms per ml | 0.5 micrograms per ml | 2 micrograms per ml
Cc1ccnc2c(O)cccc12 [Compound 67] | 1 micrograms per ml | 64 micrograms per ml | 4 micrograms per ml | 1 micrograms per ml | 0.5 micrograms per ml | 2 micrograms per ml
Oc1cccc2cccnc12 [Compound 68, 8-hydroxyquinoline] | 2 micrograms per ml | 32 micrograms per ml | 4 micrograms per ml | 16 micrograms per ml | 0.12 micrograms per ml | 2 micrograms per ml
Oc1cccc2cccnc12 [Compound 69, 8-hydroxyquinoline] | 1 micrograms per ml | 64 micrograms per ml | 4 micrograms per ml | 2 micrograms per ml | 1 micrograms per ml | 2 micrograms per ml
Fc1cccc(B(Oc2cccc3cccnc23)C2CC2)c1 [Compound 70, (3-Fluorophenyl)cyclopropylborinic acid 8-hydroxyquinoline ester] | 1 micrograms per ml | 64 micrograms per ml | 2 micrograms per ml | 1 micrograms per ml | 0.5 micrograms per ml | 2 micrograms per ml
